Experimental data published in article PMC12198282, “Application of a high-density microelectrode array assay using a 3D human iPSC-derived brain microphysiological system model for in vitro neurotoxicity screening of environmental compounds” (Archives of Toxicology, 2025).
Where two headings read alike, the source gives them in different places.

Experiments:
BrainSpheres = experiment: Cytotoxicity evaluation, resazurin assay (BrainSphere.Cyto); assay type: cell-based, human; conditions: for AC50: Homo sapiens, 312 h, read-out: ac50 BrainSphere.Cyto; for hitc BrainSphere.Cyto: day 13, tcplfit2; for BMD BrainSphere.Cyto: tcplfit2 BMD at benchmark response (1.349*SD of baseline controls); on hitc BrainSphere.Cyto: key: 1 (active); 0 (inactive)
Protocol: For the resazurin assay, BrainSpheres were cultured for 7 weeks in non-treated 6-well plates under gyratory shaking. Subsequently, the cells were exposed in the same manner as the HD-MEA plates. This assay was used to determine cell viability after exposure for 13 days to the different compounds. After exposure, resazurin diluted in PBS was added directly to the 6-well plates to a final concentration of 0.1 mg/ml. The plates were then put in an incubator for 3 h at 37 °C, 5% CO2. Then, 100 µl of the media was collected and transferred in a 96-well plate for fluorescence analysis, which was done at ex:530 nm/em:590 nm in a multi-well fluorometric reader CytoFluor series 4000 (PerSeptive Biosystems, Inc).
Ten metrics were measured to evaluate changes in neural activity in the BrainSphere MEA assay (Table 3). Considering the complexity of the data which includes seven recording days for each single ROI in a well, an area under the curve (AUC) metric was used to reduce activity across time as described in previous publications (Brown et al. [2016]; Frank et al. [2017b]; Shafer et al. [2019]). […] For concentration–response modeling, the mean AUC values across all the BrainSpheres per well (technical replicates) was computed for each endpoint, such that each concentration included biological replicates from at least three separate wells on three separate plates, representing each individual experiment. The mean AUC values were used for concentration–response modeling using the R package tcplfit2 (version 0.1.6) (Sheffield et al. [2022]). Data were normalized as a percent of vehicle control wells by plate using the equation: resp.pc=rval-bval/bval×100 where resp.pc is the percent of control value, rval is the response value, and bval is the baseline value (defined as the mean of the vehicle control and the lowest tested concentration). […] The activity cutoff was defined as 3 times the median absolute deviation (bmad) of baseline values. A curve was defined as ‘active’ if the continuous hit call was ≥ 0.9. See Supplemental Table 1 for the bmad, activity cutoff threshold, SD, and benchmark response for each endpoint in the BrainSphere MEA. Potency was defined as the concentration at 50% maximal activity (AC50 log10 µM).

2D rat cortical cultures [1] = conditions: cited from earlier work; for AC50: rNFA mc5; for hitc CCTE_Shafer_MEA_dev_active_electrodes_number / hitc CCTE_Shafer_MEA_dev_burst_duration_mean / hitc CCTE_Shafer_MEA_dev_burst_rate / hitc CCTE_Shafer_MEA_dev_bursting_electrodes_number / hitc CCTE_Shafer_MEA_dev_correlation_coefficient_mean / hitc CCTE_Shafer_MEA_dev_firing_rate_mean / hitc CCTE_Shafer_MEA_dev_inter_network_spike_interval_mean / hitc CCTE_Shafer_MEA_dev_interburst_interval_mean / hitc CCTE_Shafer_MEA_dev_mutual_information_norm / hitc CCTE_Shafer_MEA_dev_network_spike_duration_std / hitc CCTE_Shafer_MEA_dev_network_spike_number / hitc CCTE_Shafer_MEA_dev_network_spike_peak / hitc CCTE_Shafer_MEA_dev_per_burst_interspike_interval / hitc CCTE_Shafer_MEA_dev_per_burst_spike_percent / hitc CCTE_Shafer_MEA_dev_per_network_spike_spike_number_mean / hitc CCTE_Shafer_MEA_dev_per_network_spike_spike_percent / hitc CCTE_Shafer_MEA_dev_spike_duration_mean: rNFA mc5 hit call
2D rat cortical cultures [2] = conditions: rNFA mc5 hit call; cytotoxicity AlamarBlue; cited from earlier work
2D rat cortical cultures [3] = conditions: cytotoxicity LDH, cited from earlier work; for hitc CCTE_Shafer_MEA_dev_LDH: rNFA mc5 hit call
[4] = aenm active_electrodes_number, read-out: ac50 CCTE_Shafer_MEA_dev_active_electrodes_number
[5] = aenm burst_duration_mean, read-out: ac50 CCTE_Shafer_MEA_dev_burst_duration_mean
[6] = aenm burst_rate, read-out: ac50 CCTE_Shafer_MEA_dev_burst_rate
[7] = aenm bursting_electrodes_number, read-out: ac50 CCTE_Shafer_MEA_dev_bursting_electrodes_number
[8] = aenm correlation_coefficient_mean, read-out: ac50 CCTE_Shafer_MEA_dev_correlation_coefficient_mean
[9] = aenm firing_rate_mean, read-out: ac50 CCTE_Shafer_MEA_dev_firing_rate_mean
[10] = aenm mutual_information_norm, read-out: ac50 CCTE_Shafer_MEA_dev_mutual_information_norm
[11] = aenm network_spike_duration_std, read-out: ac50 CCTE_Shafer_MEA_dev_network_spike_duration_std
[12] = aenm network_spike_number, read-out: ac50 CCTE_Shafer_MEA_dev_network_spike_number
[13] = aenm network_spike_peak, read-out: ac50 CCTE_Shafer_MEA_dev_network_spike_peak
[14] = aenm per_burst_interspike_interval, read-out: ac50 CCTE_Shafer_MEA_dev_per_burst_interspike_interval
[15] = aenm per_burst_spike_percent, read-out: ac50 CCTE_Shafer_MEA_dev_per_burst_spike_percent
[16] = aenm per_network_spike_spike_number_mean, read-out: ac50 CCTE_Shafer_MEA_dev_per_network_spike_spike_number_mean
[17] = aenm per_network_spike_spike_percent, read-out: ac50 CCTE_Shafer_MEA_dev_per_network_spike_spike_percent
[18] = aenm spike_duration_mean, read-out: ac50 CCTE_Shafer_MEA_dev_spike_duration_mean
[19] = aenm bursting_electrodes_number
[20] = aenm correlation_coefficient_mean
[21] = aenm inter_network_spike_interval_mean
[22] = aenm network_spike_duration_std
[23] = aenm per_burst_interspike_interval
[24] = aenm per_network_spike_spike_number_mean
[25] = aenm per_network_spike_spike_percent
Wherever hitc CCTE Shafer MEA dev active electrodes number is given: key: 1 (active); 0 (inactive).
Wherever hitc CCTE Shafer MEA dev burst duration mean is given: key: 1 (active); 0 (inactive).
Wherever hitc CCTE Shafer MEA dev burst rate is given: key: 1 (active); 0 (inactive).
Wherever hitc CCTE Shafer MEA dev bursting electrodes number is given: key: 1 (active); 0 (inactive).
Wherever hitc CCTE Shafer MEA dev correlation coefficient mean is given: key: 1 (active); 0 (inactive).
Wherever hitc CCTE Shafer MEA dev firing rate mean is given: key: 1 (active); 0 (inactive).
Wherever hitc CCTE Shafer MEA dev inter network spike interval mean is given: key: 1 (active); 0 (inactive).
Wherever hitc CCTE Shafer MEA dev interburst interval mean is given: key: 1 (active); 0 (inactive).
Wherever hitc CCTE Shafer MEA dev mutual information norm is given: key: 1 (active); 0 (inactive).
Wherever hitc CCTE Shafer MEA dev network spike duration std is given: key: 1 (active); 0 (inactive).
Wherever hitc CCTE Shafer MEA dev network spike number is given: key: 1 (active); 0 (inactive).
Wherever hitc CCTE Shafer MEA dev network spike peak is given: key: 1 (active); 0 (inactive).
Wherever hitc CCTE Shafer MEA dev per burst interspike interval is given: key: 1 (active); 0 (inactive).
Wherever hitc CCTE Shafer MEA dev per burst spike percent is given: key: 1 (active); 0 (inactive).
Wherever hitc CCTE Shafer MEA dev per network spike spike number mean is given: key: 1 (active); 0 (inactive).
Wherever hitc CCTE Shafer MEA dev per network spike spike percent is given: key: 1 (active); 0 (inactive).
Wherever hitc CCTE Shafer MEA dev spike duration mean is given: key: 1 (active); 0 (inactive).

CC1(C)[C@H](C(=O)O[C@H](C#N)c2cccc(Oc3ccccc3)c2)[C@@H]1C=C(Br)Br [Deltamethrin]
Cytotoxicity / cell viability in the BrainSphere resazurin assay (in words) (BrainSpheres): magnitude of the response was not sufficient to indicate a positive response | AC50 (BrainSpheres; resazurin, day 13, Supplement 3 prints it also for curves with hit call 0): 45 µM | Cytotoxicity hit (BrainSpheres; human): 0 | hitc BrainSphere.Cyto (BrainSpheres; resazurin): 0 | BMD BrainSphere.Cyto (BrainSpheres): 102 µM | AC50 (2D rat cortical cultures [1]; [4]): 8.89 µM | AC50 (2D rat cortical cultures [1]; [5]): 5.29 µM | AC50 (2D rat cortical cultures [1]; [6]): 3.87 µM | AC50 (2D rat cortical cultures [1]; [7]): 3.71 µM | AC50 (2D rat cortical cultures [1]; [8]): 2.04 µM | AC50 (2D rat cortical cultures [1]; [9]): 3.1 µM | AC50 (2D rat cortical cultures [1]; [10]): 0.641 µM | AC50 (2D rat cortical cultures [1]; [11]): 3.82 µM | AC50 (2D rat cortical cultures [1]; [12]): 0.853 µM | AC50 (2D rat cortical cultures [1]; [13]): 7.54 µM | AC50 (2D rat cortical cultures [1]; [14]): 15 µM | AC50 (2D rat cortical cultures [1]; [15]): 7.16 µM | AC50 (2D rat cortical cultures [1]; [16]): 3.96 µM | AC50 (2D rat cortical cultures [1]; [17]): 1.8 µM | AC50 (2D rat cortical cultures [1]; [18]): 6.4 µM | hitc CCTE_Shafer_MEA_dev_active_electrodes_number (2D rat cortical cultures [1]; aenm active_electrodes_number): 1 | hitc CCTE_Shafer_MEA_dev_burst_duration_mean (2D rat cortical cultures [1]; aenm burst_duration_mean): 1 | hitc CCTE_Shafer_MEA_dev_burst_rate (2D rat cortical cultures [1]; aenm burst_rate): 1 | hitc CCTE_Shafer_MEA_dev_bursting_electrodes_number (2D rat cortical cultures [1]; [19]): 1 | hitc CCTE_Shafer_MEA_dev_correlation_coefficient_mean (2D rat cortical cultures [1]; [20]): 1 | hitc CCTE_Shafer_MEA_dev_firing_rate_mean (2D rat cortical cultures [1]; aenm firing_rate_mean): 1 | hitc CCTE_Shafer_MEA_dev_inter_network_spike_interval_mean (2D rat cortical cultures [1]; [21]): 0 | hitc CCTE_Shafer_MEA_dev_interburst_interval_mean (2D rat cortical cultures [1]; aenm interburst_interval_mean): 0 | hitc CCTE_Shafer_MEA_dev_mutual_information_norm (2D rat cortical cultures [1]; aenm mutual_information_norm): 1 | hitc CCTE_Shafer_MEA_dev_network_spike_duration_std (2D rat cortical cultures [1]; [22]): 1 | hitc CCTE_Shafer_MEA_dev_network_spike_number (2D rat cortical cultures [1]; aenm network_spike_number): 1 | hitc CCTE_Shafer_MEA_dev_network_spike_peak (2D rat cortical cultures [1]; aenm network_spike_peak): 1 | hitc CCTE_Shafer_MEA_dev_per_burst_interspike_interval (2D rat cortical cultures [1]; [23]): 1 | hitc CCTE_Shafer_MEA_dev_per_burst_spike_percent (2D rat cortical cultures [1]; aenm per_burst_spike_percent): 1 | hitc CCTE_Shafer_MEA_dev_per_network_spike_spike_number_mean (2D rat cortical cultures [1]; [24]): 1 | hitc CCTE_Shafer_MEA_dev_per_network_spike_spike_percent (2D rat cortical cultures [1]; [25]): 1 | hitc CCTE_Shafer_MEA_dev_spike_duration_mean (2D rat cortical cultures [1]; aenm spike_duration_mean): 1 | hitc CCTE_Shafer_MEA_dev_AB (2D rat cortical cultures [2]): 0 | hitc CCTE_Shafer_MEA_dev_LDH (2D rat cortical cultures [3]): 0

C/C(=C/C=C/[C@@H](C)C(=O)O)[C@H]1CN[C@H](C(=O)O)[C@H]1CC(=O)O [Domoic acid]
AC50 (BrainSpheres): 5 µM | Cytotoxicity / cell viability in the BrainSphere resazurin assay (in words) (BrainSpheres; day 13 of exposure): magnitude of the response was not sufficient to indicate a positive response | Cytotoxicity hit (BrainSpheres; resazurin, after 13 days of exposure): 0 | hitc BrainSphere.Cyto (BrainSpheres; resazurin): 0 | BMD BrainSphere.Cyto (BrainSpheres): 4.5 µM | ACC BrainSphere.Cyto (BrainSpheres; tcplfit2 output ACC, activity cutoff in Supplemental Table 1): 5.4 µM | AC50 (2D rat cortical cultures [1]; [4]): 0.97 µM | AC50 (2D rat cortical cultures [1]; [5]): 0.992 µM | AC50 (2D rat cortical cultures [1]; [6]): 0.131 µM | AC50 (2D rat cortical cultures [1]; [7]): 1.28 µM | AC50 (2D rat cortical cultures [1]; [8]): 1.56 µM | AC50 (2D rat cortical cultures [1]; [9]): 0.068 µM | AC50 (2D rat cortical cultures [1]; aenm inter_network_spike_interval_mean, read-out: ac50 CCTE_Shafer_MEA_dev_inter_network_spike_interval_mean): 0.16 µM | AC50 (2D rat cortical cultures [1]; aenm interburst_interval_mean, read-out: ac50 CCTE_Shafer_MEA_dev_interburst_interval_mean): 0.032 µM | AC50 (2D rat cortical cultures [1]; [10]): 0.051 µM | AC50 (2D rat cortical cultures [1]; [11]): 0.259 µM | AC50 (2D rat cortical cultures [1]; [12]): 0.022 µM | AC50 (2D rat cortical cultures [1]; [13]): 1.83 µM | AC50 (2D rat cortical cultures [1]; [14]): 1.33 µM | AC50 (2D rat cortical cultures [1]; [15]): 2.06 µM | AC50 (2D rat cortical cultures [1]; [16]): 1.05 µM | AC50 (2D rat cortical cultures [1]; [17]): 2.33 µM | AC50 (2D rat cortical cultures [1]; [18]): 1.12 µM | hitc CCTE_Shafer_MEA_dev_active_electrodes_number (2D rat cortical cultures [1]; aenm active_electrodes_number): 1 | hitc CCTE_Shafer_MEA_dev_burst_duration_mean (2D rat cortical cultures [1]; aenm burst_duration_mean): 1 | hitc CCTE_Shafer_MEA_dev_burst_rate (2D rat cortical cultures [1]; aenm burst_rate): 1 | hitc CCTE_Shafer_MEA_dev_bursting_electrodes_number (2D rat cortical cultures [1]; [19]): 1 | hitc CCTE_Shafer_MEA_dev_correlation_coefficient_mean (2D rat cortical cultures [1]; [20]): 1 | hitc CCTE_Shafer_MEA_dev_firing_rate_mean (2D rat cortical cultures [1]; aenm firing_rate_mean): 1 | hitc CCTE_Shafer_MEA_dev_inter_network_spike_interval_mean (2D rat cortical cultures [1]; [21]): 1 | hitc CCTE_Shafer_MEA_dev_interburst_interval_mean (2D rat cortical cultures [1]; aenm interburst_interval_mean): 1 | hitc CCTE_Shafer_MEA_dev_mutual_information_norm (2D rat cortical cultures [1]; aenm mutual_information_norm): 1 | hitc CCTE_Shafer_MEA_dev_network_spike_duration_std (2D rat cortical cultures [1]; [22]): 1 | hitc CCTE_Shafer_MEA_dev_network_spike_number (2D rat cortical cultures [1]; aenm network_spike_number): 1 | hitc CCTE_Shafer_MEA_dev_network_spike_peak (2D rat cortical cultures [1]; aenm network_spike_peak): 1 | hitc CCTE_Shafer_MEA_dev_per_burst_interspike_interval (2D rat cortical cultures [1]; [23]): 1 | hitc CCTE_Shafer_MEA_dev_per_burst_spike_percent (2D rat cortical cultures [1]; aenm per_burst_spike_percent): 1 | hitc CCTE_Shafer_MEA_dev_per_network_spike_spike_number_mean (2D rat cortical cultures [1]; [24]): 1 | hitc CCTE_Shafer_MEA_dev_per_network_spike_spike_percent (2D rat cortical cultures [1]; [25]): 1 | hitc CCTE_Shafer_MEA_dev_spike_duration_mean (2D rat cortical cultures [1]; aenm spike_duration_mean): 1 | Bioactivity in the rNFA (in words) (2D rat cortical cultures [1]; ref Brown et al. [2016], Carstens et al. [2022], Frank et al. [2017b], Shafer et al. [2019], ToxCast invitrodb (v4.2)): alter multiple parameters of network formation | hitc CCTE_Shafer_MEA_dev_AB (2D rat cortical cultures [2]): 0 | hitc CCTE_Shafer_MEA_dev_LDH (2D rat cortical cultures [3]): 1 | AC50 (2D rat cortical cultures [3]; read-out: ac50 CCTE_Shafer_MEA_dev_LDH, rNFA mc5): 6.75 µM
